From patent US20090029982A1, “PROTEIN KINASE INHIBITORS” (SUPERGEN, INC., priority 2005, published 2009)

How the values were obtained:
[1] = system: HT-29 human colon cancer cells; assay: HT-29 xenograft study in mice; assay type: in vivo; conditions: 25 mg/kg intraperitoneally, q.d.×5 for two weeks
Method: In order to evaluate the effectiveness of MP277 against tumor cells in a living system, a xenograft study was performed in mice. 1×10^7 HT-29 human colon cancer cells were injected subcutaneously into 16 Nu/Nu athymic nude mice (Charles River Laboratories, Wilmington, Mass.). Tumor volume was measured according to the formula ((Width)^2*Length)/2. Tumors were allowed to grow to approximately 100 mm^3 in volume (Day 0), at which point mice were randomized to two groups: Eight mice were treated with 25 mg/kg MP277, while the other eight were given an equal volume of drug vehicle. For this study, the drug vehicle used was 60% propylene glycol, 30% polyethylene glycol 300, 10% ethanol with 150 mg/mL 2-hydroxypropyl-beta-cyclodextrin. Each mouse received 0.1 mL of drug or vehicle intraperitoneally on a q.d.×5 schedule for two weeks, with two days rest between cycles.

[2] = target: T1, recombinant aurora-2 kinase (Homo sapiens, UniProt O14965); assay: aurora-2 kinase inhibition assay (Kinase-Glo, ATP remaining); assay type: biochemical; conditions: Example 20, Table 2; 3 μM ATP, 62.5 μM Kemptide, 30° C., two hours; read-out: IC50 A2K
T1 construct: purchased Upstate, Lake Placid, N.Y; host or cells: sf9 cells
T1 sequence (O14965 1-403): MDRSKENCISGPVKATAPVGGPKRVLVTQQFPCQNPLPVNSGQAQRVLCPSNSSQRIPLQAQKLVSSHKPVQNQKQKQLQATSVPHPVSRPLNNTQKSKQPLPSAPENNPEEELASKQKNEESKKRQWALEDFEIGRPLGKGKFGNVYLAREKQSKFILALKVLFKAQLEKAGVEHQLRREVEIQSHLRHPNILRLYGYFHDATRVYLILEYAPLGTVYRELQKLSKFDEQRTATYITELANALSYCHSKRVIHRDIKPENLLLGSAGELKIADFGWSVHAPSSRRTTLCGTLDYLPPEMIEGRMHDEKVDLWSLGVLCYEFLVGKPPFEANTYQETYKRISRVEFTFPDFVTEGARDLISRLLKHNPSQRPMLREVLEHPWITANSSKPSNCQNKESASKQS
Method: In this assay kinase activity was determined by quantifying the amount of ATP remaining in solution following a kinase reaction by measuring the light units (LU) produced by luciferase using a luminometer. Percent inhibition was determined for individual compounds by comparing luminometer readings of drug-treated reactions to controls containing no drug (DMSO control) and no Aurora-2 enzyme (ATP control) in the following equation: […]
In a 50 μl reaction, recombinant aurora-2 kinase produced in sf9 cells (Upstate, Lake Placid, N.Y.) was incubated at 30° C. for two hours with 62.5 μM Kemptide (Calbiochem, San Diego, Calif.), 3 μM ATP (Invitrogen, Carlsbad, Calif.) and kinase reaction buffer (40 mM Tris-HCl, 10 mM MgCl2 and 0.1 μg/μl bovine serum albumin (BSA)). This reaction was carried out in the presence of drug substances, which had been previously diluted to desired concentrations in DMSO. […] Kinase activity is determined by quantifying the amount of ATP remaining in solution following the kinase reaction by measuring the light units (LU) produced by luciferase using a luminometer (Thermo-Electron, Vantaa, Finland).
Briefly, kinase activity was determined by quantifying the amount of ATP remaining in solution following a kinase reaction by measuring the light units (LU) produced by luciferase using a luminometer. […]

SMILES: CC(=O)NS(=O)(=O)c1ccc(NC(=S)N2CCN(c3ncnc4[nH]c5cc(C(F)(F)F)c(Cl)cc5c34)CC2)cc1 [Compound 1, 4-(6-Chloro-7-trifluoromethyl-9H-pyrimido[4,5-b]indol-4-yl)-piperazine-1-carbothioic acid (4-acetylsulfamoyl-phenyl)-amide]
- toxicity noted through the duration of the study ([1]; nude mice): No noticeable toxicity
- inhibition of tumor growth in vivo ([1]; subcutaneous HT-29 xenograft, FIG. 1): effective for inhibiting tumor growth in vivo

SMILES: COc1cc2[nH]c3ncnc(N4CCN(C(=S)Nc5ccc(S(=O)(=O)NC(C)=O)cc5)CC4)c3c2cc1OC [Compound 2]
- IC50 [2]: 5 nM
